The text below walks through data of patent publication US10584115B2, “Substituted pyridine and pyrazine BMI-1 inhibitors” (PTC Therapeutics, Inc., priority 2013, dated 2020).

Each structure is given as a SMILES string. Bounds are passed on as bounds.

For the first assay, the system named is Bmi-1 protein. Briefly: Sandwich ELISA Assay (Bmi-1 protein level in HT-1080 cells after compound treatment). In kind it is cell-based. The following applies: Table 1, Bmi-1 sandwich ELISA, read-out: ELISA EC50 value for Bmi-1 protein. The essentials:
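Sandwich ELISA quantified Bmi-1 protein against recombinant standard (125–8000 pg/mL), with lysates captured overnight at 4 °C and signal by HRP/TMB at 450 nm (570 nm reference). Lysates came from HT-1080 cells incubated 40–48 h with test compounds in 0.5% DMSO.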
Regarding `FC(F)(F)c1ccc(Nc2cncc(-c3ccnc4ccccc34)n2)cc1` [compound 384, 6-(quinolin-4-yl)-N-[4-(trifluoromethyl)phenyl]pyrazin-2-amine], the EC50 lay within 100 to 3000 nM.
As to `Cc1ccc2nc(C)n(-c3cncc(Nc4ccc(C(F)(F)F)cc4)n3)c2c1` [compound 343, 6-(2,6-dimethyl-1H-benzimidazol-1-yl)-N-[4-(trifluoromethyl)phenyl]pyrazin-2-amine], the EC50 lay within 1 to 10 nM.
The same measure, in the same setting: next, `C#Cc1ccc(Nc2cncc(-n3c(C)nc4ccccc43)n2)cc1` [compound 665, N-(4-ethynylphenyl)-6-(2-methyl-1H-benzimidazol-1-yl)pyrazin-2-amine]: 100 to 3000 nM.
Regarding `CCc1nn2ccccc2c1-c1cc(C#N)cc(Nc2ccc(C(F)(F)F)cc2)n1` [compound 526, 2-(2-ethylpyrazolo[1,5-a]pyridin-3-yl)-6-{[4-(trifluoromethyl)phenyl]amino}pyridine-4-carbonitrile], the EC50 fell in the range of 10 to 100 nM.
As for `FC(F)(F)Oc1ccc(Nc2cncc(-c3c(C(F)(F)F)nc4cnccn34)n2)cc1` [compound 141, N-[4-(trifluoromethoxy)phenyl]-6-[2-(trifluoromethyl)imidazo[1,2-a]pyrazin-3-yl]pyrazin-2-amine], the EC50 lay within 100 to 3000 nM.
Take `Cc1nc2ncccc2n1-c1cncc(Nc2ccc(OC(F)F)cc2)n1` [compound 85, N-[4-(difluoromethoxy)phenyl]-6-(2-methyl-1H-imidazo[4,5-b]pyridin-1-yl)pyrazin-2-amine]: the EC50 was 10 to 100 nM.
Same read-out and setting: next, `COc1ccc(Nc2cncc(-c3c(C(F)(F)F)nc4ccccn34)n2)cc1Cl` [Cpd 22, N-(3-chloro-4-methoxyphenyl)-6-[2-(trifluoromethyl)imidazo[1,2-a]pyridin-3-yl]pyrazin-2-amine]: 1 to 10 nM; `Cc1nn(C)c(Cl)c1-c1cncc(Nc2ccc(C(F)(F)F)cc2)n1` [compound 412, 6-(5-chloro-1,3-dimethyl-1H-pyrazol-4-yl)-N-[4-(trifluoromethyl)phenyl]pyrazin-2-amine]: 1 to 10 nM; `Cc1ccc(Nc2cccc(-n3c(C)nc4ccccc43)n2)cc1` [Cpd 581, 6-(2-methyl-1H-benzimidazol-1-yl)-N-(4-methylphenyl)pyridin-2-amine]: 1 to 10 nM.
In the case of `CCCCc1nc2ccccc2n1-c1cncc(Nc2ccc(C(F)(F)F)cc2)n1` [compound 80, 6-(2-butyl-1H-benzimidazol-1-yl)-N-[4-(trifluoromethyl)phenyl]pyrazin-2-amine], the EC50 is 100 to 3000 nM.
Turning to `Cc1nc(Br)cn1-c1cncc(Nc2ccc(C(F)(F)F)cc2)n1` [compound 298, 6-(4-bromo-2-methyl-1H-imidazol-1-yl)-N-[4-(trifluoromethyl)phenyl]pyrazin-2-amine], the 50% effective concentration (EC50) is 100 to 3000 nM.
Take `OCc1nc2ccccc2n1-c1cncc(Nc2ccc(C(F)(F)F)cc2)n1` [compound 66, [1-(6-{[4-(trifluoromethyl)phenyl]amino}pyrazin-2-yl)-1H-benzimidazol-2-yl]methanol]: the EC50 was in the range of 100 to 3000 nM.
On the same count and under the same terms, next, `Cc1nc2ccccc2n1-c1cncc(Nc2ccc(OC(F)(F)F)cc2)n1` [compound 19, 6-(2-methyl-1H-benzimidazol-1-yl)-N-[4-(trifluoromethoxy)phenyl]pyrazin-2-amine]: 100 to 3000 nM.
In the case of `COc1ccc(Nc2cncc(-c3cccc4nc(C5CC5)cn34)n2)cc1` [compound 86, 6-(2-cyclopropylimidazo[1,2-a]pyridin-5-yl)-N-(4-methoxyphenyl)pyrazin-2-amine], the EC50 lay in the range of 10 to 100 nM.
Same read-out and setting: under `Cc1nc2ncc(Cl)cc2n1-c1cncc(Nc2ccc(OC(F)F)c(F)c2)n1` [compound 541, 6-(6-chloro-2-methyl-1H-imidazo[4,5-b]pyridin-1-yl)-N-[4-(difluoromethoxy)-3-fluorophenyl]pyrazin-2-amine] stands 1 to 10 nM; under `COc1ccc2nc(C)c(-c3cc(C#N)cc(Nc4ccc(F)cc4)n3)n2c1` [compound 674, 2-[(4-fluorophenyl)amino]-6-(6-methoxy-2-methylimidazo[1,2-a]pyridin-3-yl)pyridine-4-carbonitrile], 100 to 3000 nM.
Still for that read-out and setting: next, `Cc1ccc(Nc2cccc(-n3c(C)nc4ccc(F)cc43)n2)cc1` [Cpd 587, 6-(6-fluoro-2-methyl-1H-benzimidazol-1-yl)-N-(4-methylphenyl)pyridin-2-amine]: 1 to 10 nM; `FC(F)(F)c1ccc(Nc2cncc(-n3c(C(F)(F)F)nc4ncccc43)n2)cc1` [compound 123, 6-[2-(trifluoromethyl)-1H-imidazo[4,5-b]pyridin-1-yl]-N-[4-(trifluoromethyl)phenyl]pyrazin-2-amine]: 100 to 3000 nM; `FC(F)Oc1ccc(Nc2cncc(-c3c(C(F)(F)F)nc4ncccn34)n2)cc1` [Cpd 109, N-[4-(difluoromethoxy)phenyl]-6-[2-(trifluoromethyl)imidazo[1,2-a]pyrimidin-3-yl]pyrazin-2-amine]: 10 to 100 nM.
Take `Cc1nc2cc(F)c(F)cc2n1-c1c[n+]([O-])cc(Nc2ccc(C(F)(F)F)cc2)n1` [compound 495, 6-(5,6-difluoro-2-methyl-1H-benzimidazol-1-yl)-N-[4-(trifluoromethyl)phenyl]pyrazin-2-amine 4-oxide]: the EC50 was in the range of 10 to 100 nM.
Still for that read-out and setting: next, `CCc1nc2ncc(Cl)cc2n1-c1cncc(Nc2ccccc2)n1` [compound 549]: 100 to 3000 nM; `[O-][n+]1cc(Nc2ccc(C(F)(F)F)cc2)nc(-n2c(C3CC3)nc3ncc(F)cc32)c1` [compound 533, 6-(2-cyclopropyl-6-fluoro-1H-imidazo[4,5-b]pyridin-1-yl)-N-[4-(trifluoromethyl)phenyl]pyrazin-2-amine 4-oxide]: 10 to 100 nM.
With `N#Cc1cc(Nc2ccc(OC(F)F)cc2)nc(-c2c(C(F)(F)F)nc3n2CCCC3)c1` [Cpd 237, 2-{[4-(difluoromethoxy)phenyl]amino}-6-[2-(trifluoromethyl)-5,6,7,8-tetrahydroimidazo[1,2-a]pyridin-3-yl]pyridine-4-carbonitrile], the EC50 lay within 1 to 10 nM.
The same measure, in the same setting: next, `Cc1nc2cc(F)c(F)cc2n1-c1cc(N)c(F)c(Nc2ccc(C(F)(F)F)cc2)n1` [compound 505, 6-(5,6-difluoro-2-methyl-1H-benzimidazol-1-yl)-3-fluoro-N^2-[4-(trifluoromethyl)phenyl]pyridine-2,4-diamine]: 10 to 100 nM; `FC1(F)Oc2ccc(Nc3cncc(-c4c(C(F)(F)F)nn5ccccc45)n3)cc2O1` [compound 92, N-(2,2-difluoro-1,3-benzodioxol-5-yl)-6-[2-(trifluoromethyl)pyrazolo[1,5-a]pyridin-3-yl]pyrazin-2-amine]: 100 to 3000 nM.
Regarding `Cc1ccc(Nc2cncc(-n3c(C)nc4ccccc43)n2)c(N)c1` [compound 563, 4-methyl-N^1-[6-(2-methyl-1H-benzimidazol-1-yl)pyrazin-2-yl]benzene-1,2-diamine], the EC50 is 10 to 100 nM.
Take `Cc1nc2ccccc2n1-c1cc(C#N)cc(Nc2ccc(OC(F)F)cc2)n1` [Cpd 135, 2-{[4-(difluoromethoxy)phenyl]amino}-6-(2-methyl-1H-benzimidazol-1-yl)pyridine-4-carbonitrile]: the EC50 is 10 to 100 nM.
For the compound `CCc1nn2ccccc2c1-c1cncc(Nc2ccc(C)cc2)n1` [compound 628, 6-(2-ethylpyrazolo[1,5-a]pyridin-3-yl)-N-(4-methylphenyl)pyrazin-2-amine], the EC50 is below 1 nM.
On the same count and under the same terms, under `FC(F)Oc1ccc(Nc2cccc(-c3c(C(F)(F)F)nc4cnccn34)n2)cc1` [compound 196, N-[4-(difluoromethoxy)phenyl]-6-[2-(trifluoromethyl)imidazo[1,2-a]pyrazin-3-yl]pyridin-2-amine] stands 10 to 100 nM; under `COc1ccc2nc(C)c(-c3cc(C#N)cc(Nc4ccccc4)n3)n2c1` [compound 675, 2-(6-methoxy-2-methylimidazo[1,2-a]pyridin-3-yl)-6-(phenylamino)pyridine-4-carbonitrile], 10 to 100 nM; under `N#Cc1cc(Nc2ccc(C(F)(F)F)nc2)nc(-c2c(CO)nc3ccc(F)cn23)c1` [compound 445, 2-[6-fluoro-2-(hydroxymethyl)imidazo[1,2-a]pyridin-3-yl]-6-{[6-(trifluoromethyl)pyridin-3-yl]amino}pyridine-4-carbonitrile], 10 to 100 nM.
Still for that read-out and setting: next, `N#Cc1ccc(Nc2cncc(-c3c(C(F)(F)F)nc4ccccn34)n2)cc1` [Cpd 23]: 10 to 100 nM.
Same read-out and setting: next, `Fc1ccc2nc(C(F)(F)F)c(-c3cncc(Nc4ccc(OC(F)(F)F)cc4)n3)n2c1` [Cpd 55, 6-[6-fluoro-2-(trifluoromethyl)imidazo[1,2-a]pyridin-3-yl]-N-[4-(trifluoromethoxy)phenyl]pyrazin-2-amine]: 10 to 100 nM; `COC(=O)c1ccc(Nc2cccc(-n3c(C)nc4ccc(F)cc43)n2)cc1` [Cpd 610, methyl 4-{[6-(6-fluoro-2-methyl-1H-benzimidazol-1-yl)pyridin-2-yl]amino}benzoate]: 10 to 100 nM.
Consider `N#Cc1cc(Nc2ccc(C(F)(F)F)cc2)nc(-c2c(C(F)(F)F)nc3ccccn23)c1` [compound 210, 2-[2-(trifluoromethyl)imidazo[1,2-a]pyridin-3-yl]-6-{[4-(trifluoromethyl)phenyl]amino}pyridine-4-carbonitrile], for which the EC50 is 10 to 100 nM.
On to `Cc1nc2ccccc2n1-c1cncc(Nc2ccc(C(F)(F)F)nc2)n1` [compound 73, 6-(2-methyl-1H-benzimidazol-1-yl)-N-[6-(trifluoromethyl)pyridin-3-yl]pyrazin-2-amine], for which the EC50 is 10 to 100 nM.

The same assay, now with this note: read-out: ELISA EC50 value for Bmi-1 protein, Table 1, Bmi-1 sandwich ELISA.
In the case of `Cc1nn2ccccc2c1-c1cc(C#N)cc(Nc2ccc(C(F)(F)F)cc2)n1` [compound 511, 2-(2-methylpyrazolo[1,5-a]pyridin-3-yl)-6-{[4-(trifluoromethyl)phenyl]amino}pyridine-4-carbonitrile], the EC50 lay in the range of 10 to 100 nM.
